Source: patent publication US20110044963A1, “Method of Testing a Patient for Hypertension and Related Method of Treatment and Test Kit” (priority 2009, published 2011)

What was measured:
[1] = tested on: rats infused with angiotensin II; assay: Vasoconstriction hypertension model (angiotensin II infusion), urinary angiotensinogen excretion and hypertension; type: in vivo, rat; settings: for angiotensinogen excretion (in words): angiotensin II treated rats, compared with Sham rats; for UAGT (Final) / UAGT (Initial): male rats, angiotensin infusion model; for UAGT (Final): final measurement, Sham 2.4 ± 0.5; for UAGT (Initial): initial measurement
Experimental: (§1) Tests were performed to determine whether nonpregnant rats of one of two models of human essential hypertension would create a problem with respect to the other model. More specifically, a volume expansion model included taking out one kidney, thereby accelerating the process of developing hypertension, plus the replacement of drinking water with saline and weekly administration of DOCA, a powerful mineralocorticoid in order to ensure that the salt present in the saline is retained in the rat. This was compared with a model used to induce vasoconstriction by infusing a powerful vasoconstrictor, angiotensin II. It was theorized that the use of an antagonist of MBG, resibufogenin (“RBG”) would ameliorate the hypertension in volume expanded animals and would have no effect on the rats infused with angiotensin II.
(§2) The test indicates the group of rats from a Sham (control) rat with measurements being taken initially and finally. It is noted that, in the NDS rats, which were subjected to nephrectomy and DOCA plus saline, there was no significant increase in the excretion of angiotensinogen. […] The RBG, as expected, also had no effect on the hypertension induced by angiotensin infusion.

[2] = tested on: volume expansion model rats (nephrectomy DOCA saline); assay: Volume expansion hypertension model (nephrectomy, DOCA, saline), urinary angiotensinogen excretion; type: in vivo, rat
Experimental: as §1, §2

Row | Compound | effect on the hypertension induced by angiotensin infusion ([1]; angiotensin II infused rats) | angiotensinogen excretion (in words) [1] | UAGT (Final) [1] | UAGT (Initial) [1] | increase in angiotensinogen (in words) ([2]; NDSR rats: nephrectomy, DOCA plus saline, treated with resibufogenin) | UAGT (Final) ([2]; male rats, nephrectomy DOCA saline model, final measurement, NDS without RBG 2.2 ± 0.3)
1 | C[C@]12CC[C@H](O)C[C@H]1CC[C@@H]1[C@@H]2CC[C@]2(C)[C@@H](c3ccc(=O)oc3)C[C@H]3O[C@]132 [RBG, resibufogenin] | no effect | no effect | 7.8 ± 0.4 nmol/day | 2.6 ± 0.2 nmol/day | no meaningful increase | 2.0 ± 0.2 nmol/day
2 | angiotensin II (DRVYIHPF; Angiotensin-2; UniProt P01019 25-32, looked up) [powerful vasoconstrictor, an octapeptide, infused to induce vasoconstriction] |  | very substantial increase | 7.1 ± 0.5 nmol/day | 2.6 ± 0.2 nmol/day |  | 
